Laboratory results from ChEMBL document CHEMBL6182898, “Design, synthesis and bioevaluation of novel hydrazide derivatives as enhancers of immunotherapy and DNA-damage response in antitumor therapy” (Eur J Med Chem, 2025).
Active and inactive are the calls of the source. The rule behind the calls is not given here.

Columns and labels:
B16-F10 [1] = experiment: cells; assay type: functional; conditions: Mus musculus, time 72 hrs
Histone deacetylase 1 = Histone deacetylase 1 (Homo sapiens, UniProt Q13547); experiment: Inhibition of HDAC1 (unknown origin)
Chain of Histone deacetylase 1 (Q13547 whole entry): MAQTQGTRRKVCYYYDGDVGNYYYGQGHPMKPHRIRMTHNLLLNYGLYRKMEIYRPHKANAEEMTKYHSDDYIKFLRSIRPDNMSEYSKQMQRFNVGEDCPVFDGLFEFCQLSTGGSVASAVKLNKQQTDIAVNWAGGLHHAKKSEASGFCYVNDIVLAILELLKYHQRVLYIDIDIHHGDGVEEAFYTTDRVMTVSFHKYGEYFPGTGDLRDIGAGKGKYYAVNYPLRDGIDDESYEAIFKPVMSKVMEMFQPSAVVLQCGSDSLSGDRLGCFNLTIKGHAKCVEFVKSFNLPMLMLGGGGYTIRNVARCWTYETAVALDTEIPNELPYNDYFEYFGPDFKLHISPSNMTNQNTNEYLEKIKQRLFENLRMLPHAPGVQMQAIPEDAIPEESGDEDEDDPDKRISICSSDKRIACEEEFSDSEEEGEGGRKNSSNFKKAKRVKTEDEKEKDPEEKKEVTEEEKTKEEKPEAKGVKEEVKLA

K562 [2] = experiment: cells; assay type: functional; conditions: Homo sapiens, time 72 hrs
B16-F10 [3] = experiment: Antiproliferative activity against mouse B16-F10 cells incubated for 72 hrs by MTT assay; assay type: functional, cell-based; conditions: B16-F10, 72 h
HCT-116 [4] = experiment: Antiproliferative activity against human HCT-116 cells incubated for 72 hrs by MTT assay; assay type: functional, cell-based; conditions: HCT-116, 72 h
Histone deacetylase 8 = target: T1, Histone deacetylase 8 (Homo sapiens, UniProt Q9BY41); experiment: Inhibition of HDAC8 (unknown origin)
T1 sequence (Q9BY41 whole entry): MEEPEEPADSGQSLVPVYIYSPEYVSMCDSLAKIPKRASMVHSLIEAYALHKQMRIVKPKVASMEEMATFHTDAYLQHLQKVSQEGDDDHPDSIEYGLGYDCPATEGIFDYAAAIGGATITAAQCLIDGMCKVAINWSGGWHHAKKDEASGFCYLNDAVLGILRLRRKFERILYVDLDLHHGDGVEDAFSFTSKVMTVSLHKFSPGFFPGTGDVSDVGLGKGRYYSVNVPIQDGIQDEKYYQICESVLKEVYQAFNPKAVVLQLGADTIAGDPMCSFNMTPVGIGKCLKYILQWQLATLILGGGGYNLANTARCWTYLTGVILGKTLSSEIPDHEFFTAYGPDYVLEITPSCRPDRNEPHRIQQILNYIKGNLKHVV

K562 [5] = experiment: Antiproliferative activity against human K562 cells incubated for 72 hrs by CCK8 assay; assay type: functional, cell-based; conditions: K562, 72 h
SK-OV-3 [6] = experiment: Antiproliferative activity against human SK-OV-3 cells incubated for 72 hrs by MTT assay; assay type: functional, cell-based; conditions: SK-OV-3, 72 h
Histone deacetylase 3 = Histone deacetylase 3 (Homo sapiens, UniProt O15379); experiment: Inhibition of HDAC3 (unknown origin)
Chain of Histone deacetylase 3 (O15379 whole entry): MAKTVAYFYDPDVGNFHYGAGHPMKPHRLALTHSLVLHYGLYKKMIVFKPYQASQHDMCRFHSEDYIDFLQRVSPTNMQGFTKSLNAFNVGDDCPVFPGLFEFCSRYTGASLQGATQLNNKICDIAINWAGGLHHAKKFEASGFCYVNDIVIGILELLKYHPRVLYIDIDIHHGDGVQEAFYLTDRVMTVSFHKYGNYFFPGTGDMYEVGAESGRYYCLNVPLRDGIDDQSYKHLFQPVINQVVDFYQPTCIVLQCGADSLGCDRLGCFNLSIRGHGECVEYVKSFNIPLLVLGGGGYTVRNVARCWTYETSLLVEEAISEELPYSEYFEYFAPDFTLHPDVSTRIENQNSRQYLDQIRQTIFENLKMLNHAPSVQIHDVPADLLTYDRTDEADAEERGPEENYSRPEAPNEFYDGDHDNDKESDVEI

[7] = Antiproliferative activity against human HK-2 cells incubated for 72 hrs by MTT assay
HCT-116 [8] = experiment: cells; assay type: functional; conditions: Homo sapiens, time 72 hrs
4T1 [9] = experiment: Antiproliferative activity against mouse 4T1 cells incubated for 72 hrs by MTT assay; assay type: functional, cell-based; conditions: 4T1, 72 h
SK-OV-3 [10] = experiment: cells; assay type: functional; conditions: Homo sapiens, time 72 hrs
[11] = target: T2, Protein deacetylase HDAC6 (Homo sapiens, UniProt Q9UBN7); experiment: Inhibition of HDAC6 (unknown origin)
T2 sequence (Q9UBN7 whole entry): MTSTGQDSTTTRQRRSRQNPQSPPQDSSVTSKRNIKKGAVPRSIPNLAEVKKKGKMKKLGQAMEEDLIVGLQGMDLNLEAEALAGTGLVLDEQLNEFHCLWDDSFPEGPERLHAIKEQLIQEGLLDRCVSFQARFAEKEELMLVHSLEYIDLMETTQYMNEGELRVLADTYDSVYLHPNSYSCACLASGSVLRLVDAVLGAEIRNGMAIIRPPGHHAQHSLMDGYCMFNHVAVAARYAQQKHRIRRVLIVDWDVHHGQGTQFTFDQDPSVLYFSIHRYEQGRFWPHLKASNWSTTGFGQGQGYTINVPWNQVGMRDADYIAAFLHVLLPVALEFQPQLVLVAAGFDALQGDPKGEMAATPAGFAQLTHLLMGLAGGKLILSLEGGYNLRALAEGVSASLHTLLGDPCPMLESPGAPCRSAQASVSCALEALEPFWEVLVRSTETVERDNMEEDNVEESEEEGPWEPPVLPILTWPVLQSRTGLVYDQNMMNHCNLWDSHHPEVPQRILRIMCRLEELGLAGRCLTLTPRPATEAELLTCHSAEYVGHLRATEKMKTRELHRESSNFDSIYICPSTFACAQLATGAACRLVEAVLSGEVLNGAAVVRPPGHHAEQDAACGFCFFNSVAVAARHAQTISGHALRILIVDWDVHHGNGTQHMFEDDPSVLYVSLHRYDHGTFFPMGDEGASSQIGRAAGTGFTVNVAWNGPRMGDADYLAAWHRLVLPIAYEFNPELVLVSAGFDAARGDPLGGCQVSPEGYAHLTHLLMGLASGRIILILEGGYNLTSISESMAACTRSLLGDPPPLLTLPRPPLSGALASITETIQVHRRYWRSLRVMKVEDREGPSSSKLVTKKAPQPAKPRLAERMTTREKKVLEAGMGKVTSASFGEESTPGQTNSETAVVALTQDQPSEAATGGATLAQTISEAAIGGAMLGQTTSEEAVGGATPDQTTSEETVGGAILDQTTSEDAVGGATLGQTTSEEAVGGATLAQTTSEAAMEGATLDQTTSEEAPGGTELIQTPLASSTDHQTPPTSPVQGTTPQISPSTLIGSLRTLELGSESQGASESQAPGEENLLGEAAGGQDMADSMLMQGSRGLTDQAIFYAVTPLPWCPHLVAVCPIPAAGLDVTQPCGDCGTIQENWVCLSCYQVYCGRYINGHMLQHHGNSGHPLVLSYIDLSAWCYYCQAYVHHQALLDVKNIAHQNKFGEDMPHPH

4T1 [12] = experiment: cells; assay type: functional; conditions: Mus musculus, time 72 hrs
4T1 [13] = experiment: Induction of DNA damage in mouse 4T1 cells implanted in mouse assessed as decrease in PARP level at 20 mg/kg/day by Western blot analysis; assay type: functional, organism-based
4T1 [14] = experiment: Induction of DNA damage in mouse 4T1 cells assessed as increase in gamma-H2AX level at 1 uM by immunofluorescence based analysis; assay type: functional, cell-based
4T1 [15] = experiment: Induction of DNA damage in mouse 4T1 cells assessed as decrease in PARP1 level at 1 uM by immunofluorescence based analysis; assay type: functional, cell-based
4T1 [16] = experiment: Induction of DNA damage in mouse 4T1 cells assessed as decrease in PARP1 level at 2 uM incubated for 24 hrs by Western blot analysis; assay type: functional, cell-based
4T1 [17] = experiment: Induction of DNA damage in mouse 4T1 cells implanted in mouse assessed as increase in gamma-H2AX level at 20 mg/kg/day by immunofluorescence based analysis; assay type: functional, organism-based
4T1 [18] = experiment: Induction of DNA damage in mouse 4T1 cells implanted in mouse assessed as increase in gamma-H2AX level at 20 mg/kg/day by Western blot analysis; assay type: functional, organism-based
4T1 [19] = experiment: Induction of DNA damage in mouse 4T1 cells assessed as increase in gamma-H2AX level at 2 uM incubated for 24 hrs by Western blot analysis; assay type: functional, cell-based
4T1 [20] = experiment: Antitumor activity against mouse 4T1 cells implanted in mouse at 20 mg/kg/day relative to control; assay type: functional; conditions: read-out: TGI
4T1 [21] = experiment: Induction of DNA damage in mouse 4T1 cells implanted in mouse assessed as decrease in PARP level at 20 mg/kg/day by immunofluorescence based analysis; assay type: functional, organism-based

CCCNNC(=O)c1ccc(NC(=O)c2cnc(-c3ccccc3C)s2)cc1
inhibition at 10 µM (B16-F10 [1]): < 50%
IC50 (Histone deacetylase 1): 1.62 µM
inhibition at 10 µM (K562 [2]): 73.2%
IC50 (B16-F10 [3]): 12 µM
IC50 (HCT-116 [4]): 3.45 µM
IC50 (Histone deacetylase 8): > 10 µM
IC50 (K562 [5]): 3.58 µM
IC50 (SK-OV-3 [6]): 5.57 µM
IC50 (Histone deacetylase 3): 0.87 µM
IC50 at 72 h [7]: 11.9 µM
inhibition at 10 µM (HCT-116 [8]): 67.1%
IC50 (4T1 [9]): 14.5 µM
inhibition at 10 µM (SK-OV-3 [10]): 56.2%
IC50 [11]: > 10 µM
inhibition at 10 µM (4T1 [12]): 26.4%

CCCNNC(=O)c1ccc(NC(=O)c2cnc(-c3cc4ccc5cccc6ccc(c3)c4c56)s2)cc1
inhibition at 10 µM (B16-F10 [1]): 61.7%
IC50 (Histone deacetylase 1): 1.36 µM
inhibition at 10 µM (K562 [2]): < 50%
IC50 (B16-F10 [3]): 13.1 µM
IC50 (HCT-116 [4]): 8.42 µM
IC50 (Histone deacetylase 8): > 10 µM
IC50 (K562 [5]): 6.05 µM
IC50 (SK-OV-3 [6]): 5.22 µM
IC50 (Histone deacetylase 3): 0.97 µM
IC50 at 72 h [7]: 11.2 µM
inhibition at 10 µM (HCT-116 [8]): 69.3%
IC50 (4T1 [9]): 8.02 µM
inhibition at 10 µM (SK-OV-3 [10]): 77.5%
IC50 [11]: > 10 µM
inhibition at 10 µM (4T1 [12]): < 20%

O=C(c1cc(Cc2n[nH]c(=O)c3ccccc23)ccc1F)N1CCN(C(=O)C2CC2)CC1 [OLAPARIB]
Activity (4T1 [13]): Active
Activity (4T1 [14]): Active
Activity (4T1 [15]): Active
Activity (4T1 [16]): Active
Activity (4T1 [17]): Active
Activity (4T1 [18]): Active
Activity (4T1 [19]): Active
inhibition in vivo at 20 mg/kg/day (4T1 [20]): 49%
Activity (4T1 [21]): Active

CCCNNC(=O)CCCCCCNC(=O)c1cnc(-c2ccc(F)cc2F)s1
inhibition at 10 µM (B16-F10 [1]): 56%
IC50 (Histone deacetylase 1): 0.89 µM
inhibition at 10 µM (K562 [2]): 70.5%
IC50 (B16-F10 [3]): 4.74 µM
IC50 (HCT-116 [4]): 4.77 µM
IC50 (Histone deacetylase 8): > 10 µM
IC50 (K562 [5]): 5.65 µM
IC50 (SK-OV-3 [6]): 7.9 µM
IC50 (Histone deacetylase 3): 0.73 µM
IC50 at 72 h [7]: 12.2 µM
inhibition at 10 µM (HCT-116 [8]): 79.7%
IC50 (4T1 [9]): 12.9 µM
inhibition at 10 µM (SK-OV-3 [10]): 82.1%
IC50 [11]: > 10 µM
inhibition at 10 µM (4T1 [12]): < 20%
